Test results from patent US20260085292A1, “MINIMAL ESSENTIAL MEDIA FOR THE CULTURE OF HUMAN INDUCED PLURIPOTENT STEM CELLS” (Northwestern University, priority 2022, published 2026).
Where a name gives a salt, the structure may show the parent alone. Read-outs that look alike come from different tables or passages of the source. Where a SMILES comes first, the peptide text is derived from it.

Experiments:
[1] = test system: hiPSC lines (19c3 and 23c1); assay: hiPSC growth titration assay: 1-5 passages in 12-well plates, then resazurin viability assay; details: for concentration required to maintain similar levels of proliferation: three-passage assay
Text: Each commercial medium was normalized to the DMEM/F12 levels of L-glutamine, D-glucose, sodium pyruvate, sodium bicarbonate, pH, and osmolarity (FIG. 1B). To assess the effect of basal medium on hiPSC growth, an assay was developed consisting of plating cells in 12-well plates, and growing cells for 4 days with daily medium changes, before passaging at a 1:20 ratio. This was completed for 1-5 passages followed by a cost-effective resazurin viability assay (FIG. 1C). […] This was chosen to minimize the effect of variance caused by repeated manual passaging and replating. At least two hiPSC lines were used in parallel throughout the titration process. Identified adjusted concentrations of each group, such as amino acids, was incorporated prior to beginning the next group, such as vitamins, to bring subsequent titrations as close to final formulation as possible. Once the initial full cycle of titration of all components was complete, a second full cycle of was performed to confirm the results in the final formulation. We also completed identical experiments without daily medium change to identify components and concentrations that support this protocol (FIGS. 3, 5, and 8), and to allow for development of a simplified hiPSC culture strategy.
(§1) Human induced pluripotent cell culture: BMEM consists of BMEM basal medium and BMEM supplement. […] These are added to ultrapure water and filter sterilized. BMEM supplement consists of 5 mg/mL E. coli-derived recombinant human insulin (Gibco), […] L-ascorbic acid 2-phosphate trisodium salt (AA2P, Wako), 5 mg/mL Oryza sat-iva-derived recombinant human transferrin (Optiferrin, InVitria), 20 ng/mL sodium selenite (Sigma), 40 ng/mL recombinant human FGF2-G3 (made in-house), 0.1 ng/mL recombinant human TGFb3 (E. coli-derived, Qkine), 0.1 ng/mL recombinant human NRG1 (E. coli-derived, Shenodoah Biotechnology). Cells were routinely maintained in this medium on 1:800 diluted growth factor reduced Matrigel (Corning) diluted in a BMEM basal at 2 mL per well of a 6-well plate or equivalent. Matrigel-coated plates were kept in CO2 incubators at 37° C. for up to 1 month. BMEM was supplemented with […] thiazovivin (LC Labs), hereafter referred to as BMEM-T, for the first 24 h after passage. For standard culture, cells were passaged at a ratio of 1:20 every 4 days using 0.5 mM EDTA (Invitrogen) diluted in DPBS^−/− (without Ca^2+ and Mg^2+, Corning), after achieving ˜70%-80% confluence. Cell lines were used between passages 20 and 100. Throughout, pH was adjusted immediately after making the medium at room temperature and atmospheric oxygen and carbon dioxide levels but before filter sterilization. pH was adjusted with 12 N HCl or 1 N NaOH (both from Fisher) and measured using a SevenCompact pH meter (MettlerToledo). Osmolarity was measured using an osmometer (Advanced Instruments).
Resazurin assay: Resazurin sodium salt (B21187.06, Thermo) was diluted to 5 mg/mL in sterile Milli-Q ultrapure water and 600 μL aliquots were made and stored at −20° C. One aliquot was added to 14.4 mL of water to generate a 10× stock. Stock was diluted in BMEM to 1×, and 1 mL was added to each well of a 12-well plate and incubated at 37° C. for 2.5 h. Plates were read on a Varioskan Lux (Thermo) in fluorescent mode using top read and an excitation wavelength of 560 nm and an emission wavelength of 590 nm.

[2] = 110 mM NaCl
Description: as §1, with “For standard culture, cells were passaged at a ratio of 1:20 every 4 days using 0.5 mM EDTA (Invitrogen) diluted in DPBS^−/− (without Ca^2+ and Mg^2+, Corning), after achieving ˜70%-80% confluence. Cell lines were used between passages 20 and 100.” left out

[3] = daily medium change, multi-passage assay, normalized to DMEM/F12

Molecule	requirement of the component for hiPSC growth [1, 3]	suitable concentration compared with that in DMEM/F12 ([1]; titration, daily medium change)	further results
O=C(O)CCCC[C@@H]1CCSS1 (racemic) [lipoic acid, Lipoic acid]	superfluous		
[Ca+2].[Cl-].[Cl-] [CaCl2, Calcium chloride (CaCl2)]		could be reduced	effect of low concentrations on hiPSCs ([1]; two-passage titration): reduced the adhesion of hiPSCs to the plates
CC(C)(CO)[C@@H](O)C(=O)NCCC(=O)[O-].CC(C)(CO)[C@@H](O)C(=O)NCCC(=O)[O-].[Ca+2] [D-pantothenic acid, D-Pantothenic acid hemicalcium salt (B5)]		higher concentrations	
O=S(=O)(O)CCN1CCN(CCO)CC1 [HEPES]	superfluous		requirement of the component for hiPSC growth ([1]; no medium change): superfluous
[Cl-].[K+] [KCl, Potassium chloride (KCl)]		could be reduced	
C[C@H](N)C(=O)N[C@@H](CCC(N)=O)C(=O)O [L-alanyl-L-glutamine] (H-Ala-Gln-OH)			hiPSC growth rate compared with glutamine at the suitable concentrations ([1]; 2 mM vs 1 mM glutamine, also with no medium change): no difference; concentration required to maintain similar levels of proliferation [1]: 2 mM
O=S(=O)([O-])[O-].[Mg+2] [MgSO4, Magnesium sulfate (MgSO4)]		enhanced growth	
[Cl-].[Na+] [NaCl, Sodium chloride (NaCl)]			concentration suitable for hiPSC growth ([1]; NaCl titration in the presence of sodium bicarbonate, two-passage assay): 110 mM; osmolarity produced [2]: 295 mOsm/L
CC(=O)C(=O)[O-].[Na+] [Sodium pyruvate]	essential	slightly higher concentration	
O.O.O.O.O.O.O.O=S(=O)([O-])[O-].[Zn+2] [Zinc, Zinc sulfate heptahydrate (ZnSO4•7H2O)]	not shown to be essential		improvement of hiPSC growth ([1]; two-passage assay): approximately 10%
O=C(O)CCCC[C@@H]1SC[C@@H]2NC(=O)N[C@@H]21 [biotin, Biotin (B7)]		sufficient at concentrations lower than those in DMEM/F12	
O.O.O.O.O.O=S(=O)([O-])[O-].[Cu+2] [copper, Copper(II) sulfate pentahydrate (CuSO4•5H2O)]	No advantage		concentration at which toxic to hiPSCs [1]: > 100 µM
N[C@@H](CS)C(=O)O [cysteine, L-Cysteine HCl•H2O]	can replace the cystine and cysteine combination		
Nc1nc(=O)c2nc(CNc3ccc(C(=O)N[C@@H](CCC(=O)O)C(=O)O)cc3)cnc2[nH]1 [folic acid, Folic acid (B9)]		sufficient at concentrations lower than those in DMEM/F12	
NC(=O)CC[C@H](N)C(=O)O [glutamine, L-Glutamine]		suitable at lower concentrations	concentration required to maintain similar levels of proliferation [1]: 1 mM
NCC(=O)O [glycine, Glycine]			requirement of the component for hiPSC growth ([1]; no medium change): superfluous
N[C@@H](Cc1c[nH]cn1)C(=O)O [histidine, L-Histidine HCl•H2O]		approximately suitable	
O=c1[nH]cnc2nc[nH]c12 [hypoxanthine, Hypoxanthine]	superfluous		
O.O.O.O.O.O.O.O.O.O=[N+]([O-])[O-].O=[N+]([O-])[O-].O=[N+]([O-])[O-].[Fe+3] [iron nitrate, Iron(III) nitrate nonahydrate (Fe(NO3)3•9H2O)]			toxicity to hiPSCs ([1]; concentration titration, two-passage assay): toxic at high concentrations

Molecule	requirement of the component for hiPSC growth [1, 3]	suitable concentration compared with that in DMEM/F12 ([1]; titration, daily medium change)	further results
O.O.O.O.O.O.O.O=S(=O)([O-])[O-].[Fe+2] [iron sulfate, Iron(II) sulfate heptahydrate (FeSO4•7H2O)]			toxicity to hiPSCs [1]: toxic at high concentrations
CC(C)C[C@H](N)C(=O)O [leucine, L-Leucine]		approximately suitable	
CCCCC/C=C\C/C=C\CCCCCCCC(=O)O [linoleic acid, Linoleic acid]	superfluous		
Cl.NCCCC[C@H](N)C(=O)O [lysine, L-Lysine HCl]		approximately suitable	
CSCC[C@H](N)C(=O)O [methionine, L-Methionine]		approximately suitable	
O[C@H]1[C@H](O)[C@@H](O)[C@H](O)[C@@H](O)[C@H]1O [myoinositol, myo-Inositol]		higher concentrations	
NC(=O)c1cccnc1 [nicotinamide, Nicotinamide (B3)]		sufficient at concentrations lower than those in DMEM/F12	
Cl.Cl.NCCCCN [putrescine, Putrescine dihydrochloride]	superfluous		
Cc1ncc(CO)c(CO)c1O [pyridoxine, Pyridoxine hydrochloride (B6)]		sufficient at concentrations lower than those in DMEM/F12	
Cc1cc2nc3c(=O)[nH]c(=O)nc-3n(C[C@H](O)[C@H](O)[C@H](O)CO)c2cc1C [riboflavin, Riboflavin (B2)]		sufficient at concentrations lower than those in DMEM/F12	
O=C([O-])O.[Na+] [sodium bicarbonate, Sodium bicarbonate (NaHCO3)]			concentration most suitable for hiPSC growth ([1]; pH normalized to 7.1): 22.5 mM
O.O=P([O-])(O)O.[Na+] [sodium phosphate monobasic, Sodium phosphate monobasic monohydrate (NaH2PO4•H2O)]	superfluous		concentration at which essential ([1]; no medium change assay): around 2 mM
Cc1ncc(C[n+]2csc(CCO)c2C)c(N)n1 [thiamine, Thiamine hydrochloride (B1)]	superfluous		requirement of the component for hiPSC growth ([1]; normoxic conditions (21% O2)): required
C[C@@H](O)[C@H](N)C(=O)O [threonine, L-Threonine]		approximately suitable	
Cc1cn([C@H]2C[C@H](O)[C@@H](CO)O2)c(=O)[nH]c1=O [thymidine, Thymidine]	superfluous		
N[C@@H](Cc1c[nH]c2ccccc12)C(=O)O [tryptophan, L-Tryptophan]			suitable concentration relative to that in DMEM/F12 ([1]; titration, two-passage assay): ~4 fold
N[C@@H](Cc1ccc(O)cc1)C(=O)O [tyrosine, L-Tyrosine disodium salt hydrate]		approximately suitable	
Iron	essential		
